{"source": "paper PMC11012124", "about": "“Synthesis of Novel Triazine-Based Chalcones and 8,9-dihydro-7H-pyrimido[4,5-b][1,4]diazepines as Potential Leads in the Search of Anticancer, Antibacterial and Antifungal Agents” (International Journal of Molecular Sciences, 2024)", "key": {"60 cancer cell lines": {"test_system": "60 cancer cell lines", "experiment": "NCI-60 one-dose screen (10 μM)", "type": "cell-based", "conditions": "Homo sapiens; one dose of 10 μM, mean over 60 cancer cell lines; read-out: Mean Growth Percent (MGP)", "source_text": "Additionally, the mean of the growth percentages (MGP) of each compound against all the 60 cancer cell lines is also reported, which is used as one of the selection criteria to continue with tests at five concentration doses."}, "HL-60(TB)": {"test_system": "HL-60(TB)", "experiment": "cells", "conditions": "Homo sapiens, HL-60, 48 h"}, "MOLT-4": {"test_system": "MOLT-4", "experiment": "cells", "conditions": "Homo sapiens, MOLT-4, 48 h"}, "RPMI-8226": {"test_system": "RPMI-8226", "experiment": "cells", "conditions": "Homo sapiens, RPMI-8226, 48 h"}, "A549/ATCC": {"test_system": "A549/ATCC", "experiment": "cells", "conditions": "Homo sapiens, A549, 48 h"}, "HOP-92": {"test_system": "HOP-92", "experiment": "cells", "conditions": "Homo sapiens, HOP-92, 48 h"}, "NCI-H226": {"test_system": "NCI-H226", "experiment": "cells", "conditions": "Homo sapiens, NCI-H226, 48 h"}, "NCI-H23": {"test_system": "NCI-H23", "experiment": "cells", "conditions": "Homo sapiens, NCI-H23, 48 h"}, "NCI-H460": {"test_system": "NCI-H460", "experiment": "cells", "conditions": "Homo sapiens, NCI-H460, 48 h"}, "NCI-H522": {"test_system": "NCI-H522", "experiment": "cells", "conditions": "Homo sapiens, NCI-H522, 48 h"}, "COLO 205": {"test_system": "COLO 205", "experiment": "cells", "conditions": "Homo sapiens, COLO 205, 48 h"}, "HCT-116": {"test_system": "HCT-116", "experiment": "cells", "conditions": "Homo sapiens, HCT-116, 48 h"}, "HCT-15": {"test_system": "HCT-15", "experiment": "cells", "conditions": "Homo sapiens, HCT-15, 48 h"}, "HT29": {"test_system": "HT29", "experiment": "cells", "conditions": "Homo sapiens, HT-29, 48 h"}, "KM12": {"test_system": "KM12", "experiment": "cells", "conditions": "Homo sapiens, KM12, 48 h"}, "SF-295": {"test_system": "SF-295", "experiment": "cells", "conditions": "Homo sapiens, SF-295, 48 h"}, "SF-539": {"test_system": "SF-539", "experiment": "cells", "conditions": "Homo sapiens, SF-539, 48 h"}, "SNB-75": {"test_system": "SNB-75", "experiment": "cells", "conditions": "Homo sapiens, SNB-75, 48 h"}, "U251": {"test_system": "U251", "experiment": "cells", "conditions": "Homo sapiens, U-251, 48 h"}, "LOX IMVI": {"test_system": "LOX IMVI", "experiment": "cells", "conditions": "Homo sapiens, 48 h"}, "M14": {"test_system": "M14", "experiment": "cells", "conditions": "Homo sapiens, M14, 48 h"}, "SK-MEL-2": {"test_system": "SK-MEL-2", "experiment": "cells", "conditions": "Homo sapiens, SK-MEL-2, 48 h"}, "SK-MEL-5": {"test_system": "SK-MEL-5", "experiment": "cells", "conditions": "Homo sapiens, SK-MEL-5, 48 h"}, "UACC-257": {"test_system": "UACC-257", "experiment": "cells", "conditions": "Homo sapiens, UACC-257, 48 h"}, "OVCAR-4": {"test_system": "OVCAR-4", "experiment": "cells", "conditions": "Homo sapiens, OVCAR-4, 48 h"}, "OVCAR-5": {"test_system": "OVCAR-5", "experiment": "cells", "conditions": "Homo sapiens, OVCAR-5, 48 h"}, "SK-OV-3": {"test_system": "SK-OV-3", "experiment": "cells", "conditions": "Homo sapiens, SK-OV-3, 48 h"}, "786-0": {"test_system": "786-0", "experiment": "cells", "conditions": "Homo sapiens, 786-0, 48 h"}, "A498": {"test_system": "A498", "experiment": "cells", "conditions": "Homo sapiens, A498, 48 h"}, "SN12C": {"test_system": "SN12C", "experiment": "cells", "conditions": "Homo sapiens, 48 h"}, "TK-10": {"test_system": "TK-10", "experiment": "cells", "conditions": "Homo sapiens, TK-10, 48 h"}, "UO-31": {"test_system": "UO-31", "experiment": "cells", "conditions": "Homo sapiens, UO-31, 48 h"}, "DU-145": {"test_system": "DU-145", "experiment": "cells", "conditions": "Homo sapiens, DU-145, 48 h"}, "MCF7": {"test_system": "MCF7", "experiment": "cells", "conditions": "Homo sapiens, MCF7, 48 h"}, "MDA-MB-231/ATCC": {"test_system": "MDA-MB-231/ATCC", "experiment": "cells", "conditions": "Homo sapiens, MDA-MB-231, 48 h"}, "T-47D": {"test_system": "T-47D", "experiment": "cells", "conditions": "Homo sapiens, T47D, 48 h"}, "MDA-MB-468": {"test_system": "MDA-MB-468", "experiment": "cells", "conditions": "Homo sapiens, MDA-MB-468, 48 h"}}}
{"molecule": "CN(C)c1nc(NCCNS(=O)(=O)c2ccc(C(=O)/C=C/c3ccc(C(F)(F)F)cc3)cc2)nc(Nc2ccc(F)cc2)n1", "note": "[24g]", "values": [{"measurement": "activity at 10 µM", "setting": "60 cancer cell lines", "result": -27.2, "unit": "%"}, {"measurement": "GI50", "setting": "HL-60(TB)", "result": 3.81, "unit": "µM"}, {"measurement": "CC50", "setting": "HL-60(TB); read-out: LC50", "result": 30, "unit": "µM"}, {"measurement": "GI50", "setting": "MOLT-4", "result": 2.9, "unit": "µM"}, {"measurement": "CC50", "setting": "MOLT-4; read-out: LC50", "result": 9.61, "unit": "µM"}, {"measurement": "GI50", "setting": "RPMI-8226", "result": 3, "unit": "µM"}, {"measurement": "CC50", "setting": "RPMI-8226; read-out: LC50", "result": "> 100", "unit": "µM"}, {"measurement": "GI50", "setting": "A549/ATCC", "result": 10, "unit": "µM"}, {"measurement": "CC50", "setting": "A549/ATCC; read-out: LC50", "result": 25.4, "unit": "µM"}, {"measurement": "GI50", "setting": "HOP-92", "result": 6.15, "unit": "µM"}, {"measurement": "CC50", "setting": "HOP-92; read-out: LC50", "result": 20.7, "unit": "µM"}, {"measurement": "GI50", "setting": "NCI-H226", "result": 7.82, "unit": "µM"}, {"measurement": "CC50", "setting": "NCI-H226; read-out: LC50", "result": 24.7, "unit": "µM"}, {"measurement": "GI50", "setting": "NCI-H23", "result": 11.2, "unit": "µM"}, {"measurement": "CC50", "setting": "NCI-H23; read-out: LC50", "result": 24.2, "unit": "µM"}, {"measurement": "GI50", "setting": "NCI-H460", "result": 4.09, "unit": "µM"}, {"measurement": "CC50", "setting": "NCI-H460; read-out: LC50", "result": 14.9, "unit": "µM"}, {"measurement": "GI50", "setting": "NCI-H522", "result": 11.2, "unit": "µM"}, {"measurement": "CC50", "setting": "NCI-H522; read-out: LC50", "result": 24.7, "unit": "µM"}, {"measurement": "GI50", "setting": "COLO 205", "result": 11.2, "unit": "µM"}, {"measurement": "CC50", "setting": "COLO 205; read-out: LC50", "result": 24.8, "unit": "µM"}, {"measurement": "GI50", "setting": "HCT-116", "result": 1.68, "unit": "µM"}, {"measurement": "CC50", "setting": "HCT-116; read-out: LC50", "result": 3.13, "unit": "µM"}, {"measurement": "GI50", "setting": "HCT-15", "result": 3.22, "unit": "µM"}, {"measurement": "CC50", "setting": "HCT-15; read-out: LC50", "result": 11.9, "unit": "µM"}, {"measurement": "GI50", "setting": "HT29", "result": 1.91, "unit": "µM"}, {"measurement": "CC50", "setting": "HT29; read-out: LC50", "result": 3.95, "unit": "µM"}, {"measurement": "GI50", "setting": "KM12", "result": 2.38, "unit": "µM"}, {"measurement": "CC50", "setting": "KM12; read-out: LC50", "result": 6, "unit": "µM"}, {"measurement": "GI50", "setting": "SF-295", "result": 11.3, "unit": "µM"}, {"measurement": "CC50", "setting": "SF-295; read-out: LC50", "result": 23.5, "unit": "µM"}, {"measurement": "GI50", "setting": "SF-539", "result": 10.7, "unit": "µM"}, {"measurement": "CC50", "setting": "SF-539; read-out: LC50, SF-539, 48 h", "result": 22.5, "unit": "µM"}, {"measurement": "GI50", "setting": "SNB-75", "result": 8.41, "unit": "µM"}, {"measurement": "CC50", "setting": "SNB-75; read-out: LC50", "result": 22.7, "unit": "µM"}, {"measurement": "GI50", "setting": "U251; U251, 48 h", "result": 3.42, "unit": "µM"}, {"measurement": "CC50", "setting": "U251; read-out: LC50", "result": 13, "unit": "µM"}, {"measurement": "GI50", "setting": "LOX IMVI", "result": 1.86, "unit": "µM"}, {"measurement": "CC50", "setting": "LOX IMVI; read-out: LC50, LOX IMVI, 48 h", "result": 3.84, "unit": "µM"}, {"measurement": "GI50", "setting": "M14", "result": 3.39, "unit": "µM"}, {"measurement": "CC50", "setting": "M14; read-out: LC50", "result": 12.9, "unit": "µM"}, {"measurement": "GI50", "setting": "SK-MEL-2", "result": 9.45, "unit": "µM"}, {"measurement": "CC50", "setting": "SK-MEL-2; read-out: LC50", "result": 22.3, "unit": "µM"}, {"measurement": "GI50", "setting": "SK-MEL-5", "result": 10.4, "unit": "µM"}, {"measurement": "CC50", "setting": "SK-MEL-5; read-out: LC50", "result": 22.2, "unit": "µM"}, {"measurement": "GI50", "setting": "UACC-257", "result": 11, "unit": "µM"}, {"measurement": "CC50", "setting": "UACC-257; read-out: LC50", "result": 25, "unit": "µM"}, {"measurement": "GI50", "setting": "OVCAR-4", "result": 8.78, "unit": "µM"}, {"measurement": "CC50", "setting": "OVCAR-4; read-out: LC50", "result": 23.1, "unit": "µM"}, {"measurement": "GI50", "setting": "OVCAR-5", "result": 12, "unit": "µM"}, {"measurement": "CC50", "setting": "OVCAR-5; read-out: LC50", "result": 24.4, "unit": "µM"}, {"measurement": "GI50", "setting": "SK-OV-3", "result": 13.7, "unit": "µM"}, {"measurement": "CC50", "setting": "SK-OV-3; read-out: LC50", "result": 27.8, "unit": "µM"}, {"measurement": "GI50", "setting": "786-0", "result": 10.6, "unit": "µM"}, {"measurement": "CC50", "setting": "786-0; read-out: LC50", "result": 22.7, "unit": "µM"}, {"measurement": "GI50", "setting": "A498", "result": 13, "unit": "µM"}, {"measurement": "CC50", "setting": "A498; read-out: LC50", "result": 26.2, "unit": "µM"}, {"measurement": "GI50", "setting": "SN12C", "result": 6.36, "unit": "µM"}, {"measurement": "CC50", "setting": "SN12C; read-out: LC50", "result": 19.9, "unit": "µM"}, {"measurement": "GI50", "setting": "TK-10", "result": 17.4, "unit": "µM"}, {"measurement": "CC50", "setting": "TK-10; read-out: LC50", "result": 32, "unit": "µM"}, {"measurement": "GI50", "setting": "UO-31", "result": 6.41, "unit": "µM"}, {"measurement": "CC50", "setting": "UO-31; read-out: LC50", "result": 19.9, "unit": "µM"}, {"measurement": "GI50", "setting": "DU-145", "result": 11.2, "unit": "µM"}, {"measurement": "CC50", "setting": "DU-145; read-out: LC50", "result": 24, "unit": "µM"}, {"measurement": "GI50", "setting": "MCF7", "result": 1.7, "unit": "µM"}, {"measurement": "CC50", "setting": "MCF7; read-out: LC50", "result": 3.56, "unit": "µM"}, {"measurement": "GI50", "setting": "MDA-MB-231/ATCC", "result": 8.38, "unit": "µM"}, {"measurement": "CC50", "setting": "MDA-MB-231/ATCC; read-out: LC50", "result": 20.8, "unit": "µM"}, {"measurement": "GI50", "setting": "T-47D", "result": 5.16, "unit": "µM"}, {"measurement": "CC50", "setting": "T-47D; read-out: LC50", "result": 19.6, "unit": "µM"}, {"measurement": "GI50", "setting": "MDA-MB-468", "result": 4.53, "unit": "µM"}, {"measurement": "CC50", "setting": "MDA-MB-468; read-out: LC50", "result": 17, "unit": "µM"}]}
